The values below come from patent US20240116985A1, “STAPLED PEPTIDES AND METHODS THEREOF” (priority 2020, published 2024).

In test [1] the target is T1, full-length beta-Catenin (Uniprot ID P35222) (Homo sapiens, UniProt P35222).
T1 construct: 10 nM full-length beta-Catenin (Uniprot ID P35222)
T1 sequence (P35222 1-781): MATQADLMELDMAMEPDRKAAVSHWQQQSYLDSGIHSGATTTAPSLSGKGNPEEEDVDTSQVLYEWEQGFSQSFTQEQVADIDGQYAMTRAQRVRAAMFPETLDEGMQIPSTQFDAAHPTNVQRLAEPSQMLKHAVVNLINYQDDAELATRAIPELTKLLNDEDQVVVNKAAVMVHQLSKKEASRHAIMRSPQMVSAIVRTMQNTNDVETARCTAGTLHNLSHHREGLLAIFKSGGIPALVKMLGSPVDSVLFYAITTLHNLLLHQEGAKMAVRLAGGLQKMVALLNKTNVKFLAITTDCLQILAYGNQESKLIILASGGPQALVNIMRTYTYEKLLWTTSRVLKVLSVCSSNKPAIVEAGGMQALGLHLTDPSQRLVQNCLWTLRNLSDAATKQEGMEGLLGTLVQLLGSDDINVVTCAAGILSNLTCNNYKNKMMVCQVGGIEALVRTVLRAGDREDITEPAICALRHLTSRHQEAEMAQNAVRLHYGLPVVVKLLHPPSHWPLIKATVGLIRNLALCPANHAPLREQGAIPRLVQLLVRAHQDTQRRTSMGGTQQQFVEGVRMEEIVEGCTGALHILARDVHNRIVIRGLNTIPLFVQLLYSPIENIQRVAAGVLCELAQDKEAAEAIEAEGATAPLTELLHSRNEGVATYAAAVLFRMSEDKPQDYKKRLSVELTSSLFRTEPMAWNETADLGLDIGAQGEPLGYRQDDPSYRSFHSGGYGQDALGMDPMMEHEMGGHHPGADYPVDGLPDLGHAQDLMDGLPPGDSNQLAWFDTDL
The test can be described thus: Fluorescence polarization IC50 (beta-catenin / 5FAM-TCF4 10-53 competition). It counts as binding. Background: In fluorescence polarisation assays a small probe gives low polarisation when free and higher when bound to something large.

Test [2] addresses T2, beta-catenin/TCF4 engagement (Homo sapiens, UniProt P35222).
T2 construct: expressed in transfected cells; host or cells: HEK293
T2 sequence (P35222 1-781): T1 sequence (P35222 1-781)
Kind of test: Nano-BRET target engagement assay (B-cat-Halo & TCF4-Luc in HEK293 cells). The test is classed as cell-based. On the technique in general: Bioluminescence resonance energy transfer reports proximity on the nanometre scale.

Setting [3] is: fluorescence polarization; read-out: beta-Catenin FP IC50.
Setting [4] is: absolute IC50; read-out: NanoBRET Abs IC50.

Read-outs that look alike come from different tables or passages of the source.

Usually IC50 stands for the concentration that gives 50% inhibition. For `CC(=O)N1CCC[C@]12CC=CCCCC1(CCCC=CCCCOC(=O)N3CC[C@@](C(=O)N[C@@H](Cc4ccsc4)C(=O)N[C@@H](Cc4csc5ccccc45)C(=O)N[C@@H](CC(N)=O)C(=O)N[C@@H](C)C(=O)NC(C)(C)C(=O)N[C@@H](C)C(=O)NC(C)(C)C(=O)N[C@@H](C)C(=O)NC(C)(C)C(=O)N[C@@H](C)C(N)=O)(C3)NC(=O)[C@H](CC(C)C)NC(=O)[C@H](Cc3ccccc3)NC(=O)[C@H](C)NC(=O)[C@H](C)NC(=O)[C@H](Cc3cccc(C(=O)O)c3)NC(=O)[C@H](CC(=O)O)NC1=O)NC(=O)[C@H](CC(C)(C)C)NC(=O)[C@H](CC(=O)O)NC2=O` (stereo partly drawn) [I-2273, Ac-PL3-Asp-Npg-B5-Asp-3COOHF-Ala-Ala-Phe-Leu-PyrS2-3Thi-BztA-Asn-Ala-Aib-Ala-Aib-Ala-Aib-Ala-NH2], the IC50 in test [1] (setting [3]) was found to be 107 nM; in test [2] (setting [4]) it was 6200 nM.
Consider `CC(=O)N1CCC[C@]12CC=CCCCC1(CCCC=CCCCOC(=O)N3CC[C@@](C(=O)N[C@@H](Cc4ccsc4)C(=O)N[C@@H](Cc4csc5ccccc45)C(=O)N[C@@H](CC(N)=O)C(=O)N[C@@H](CC(C)C)C(=O)N[C@@H](CC(C)C)C(=O)N[C@@H](CC(C)C)C(N)=O)(C3)NC(=O)[C@H](CC(C)C)NC(=O)[C@H](Cc3ccccc3)NC(=O)[C@H](C)NC(=O)[C@H](C)NC(=O)[C@H](Cc3cccc(C(=O)O)c3)NC(=O)[C@H](CC(=O)O)NC1=O)NC(=O)[C@H](CC(C)(C)C)NC(=O)[C@H](CC(=O)O)NC2=O` (stereo partly drawn) [I-2275, Ac-PL3-Asp-Npg-B5-Asp-3COOHF-Ala-Ala-Phe-Leu-PyrS2-3Thi-BztA-Asn-Leu-Leu-Leu-NH2], for which the IC50 in test [1] (setting [3]) is 117 nM; in test [2] (setting [4]), 3500 nM.
For `CC(=O)N1CCC[C@]12CC=CCCCC1(CCCC=CCCCOC(=O)N3CC[C@@](C(=O)N[C@@H](Cc4ccsc4)C(=O)N[C@@H](Cc4csc5ccccc45)C(=O)N[C@@H](CC(N)=O)C(=O)N[C@@H](C)C(=O)N[C@@H](CC(C)C)C(=O)N[C@@H](CC(C)C)C(N)=O)(C3)NC(=O)[C@H](CC(C)C)NC(=O)[C@H](Cc3ccccc3)NC(=O)[C@H](C)NC(=O)[C@H](C)NC(=O)[C@H](Cc3cccc(C(=O)O)c3)NC(=O)[C@H](CC(=O)O)NC1=O)NC(=O)[C@H](CC(C)(C)C)NC(=O)[C@H](CC(=O)O)NC2=O` (stereo partly drawn) [I-2277, Ac-PL3-Asp-Npg-B5-Asp-3COOHF-Ala-Ala-Phe-Leu-PyrS2-3Thi-BztA-Asn-Ala-Leu-Leu-NH2], in that order: 114 nM and 2300 nM.
`CC(=O)N1CCC[C@]12CC=CCCCC1(CCCC=CCCCOC(=O)N3CC[C@@](C(=O)N[C@@H](Cc4ccsc4)C(=O)N[C@@H](Cc4csc5ccccc45)C(=O)N[C@@H](CC(N)=O)C(=O)N[C@@H](C)C(=O)N[C@@H](CC(C)C)C(=O)N[C@@H](CC(C)C)C(N)=O)(C3)NC(=O)[C@H](CC(C)C)NC(=O)[C@H](Cc3ccccc3)NC(=O)[C@H](C)NC(=O)[C@H](C)NC(=O)[C@H](Cc3cccc(C(=O)O)c3)NC(=O)[C@H](CC(=O)O)NC1=O)NC(=O)[C@H](CC(C)(C)C)NC(=O)[C@H](CC(=O)O)NC2=O` (stereo partly drawn) [I-2278, Ac-PL3-Asp-Npg-B5-Asp-3COOHF-Ala-Ala-Phe-Leu-PyrS2-3Thi-BztA-Asn-Ala-Leu-Leu-NH2]: the IC50 turned out to be 120 nM in test [1] (setting [3]) and 2800 nM in test [2] (setting [4]).
As for `CC(=O)N1CCC[C@]12CC=CCCCC1(CCCC=CCCCOC(=O)N3CC[C@@](C(=O)N[C@@H](Cc4ccsc4)C(=O)N[C@@H](Cc4csc5ccccc45)C(=O)N[C@@H](CC(N)=O)C(=O)N[C@@H](CC(C)C)C(=O)N[C@@H](CC(C)C)C(=O)N[C@@H](CC(C)C)C(=O)N[C@@H](CC(C)C)C(=O)N[C@@H](CC(C)C)C(N)=O)(C3)NC(=O)[C@H](CC(C)C)NC(=O)[C@H](Cc3ccccc3)NC(=O)[C@H](C)NC(=O)[C@H](C)NC(=O)[C@H](Cc3cccc(C(=O)O)c3)NC(=O)[C@H](CC(=O)O)NC1=O)NC(=O)[C@H](CC(C)(C)C)NC(=O)[C@H](CC(=O)O)NC2=O` (stereo partly drawn) [I-2279, Ac-PL3-Asp-Npg-B5-Asp-3COOHF-Ala-Ala-Phe-Leu-PyrS2-3Thi-BztA-Asn-Leu-Leu-Leu-Leu-Leu-NH2], the IC50 was 7230 nM in test [1] (read-out: beta-Catenin FP IC50; fluorescence polarization) and above 20000 nM in test [2] (read-out: NanoBRET Abs IC50; absolute IC50).
`CC(=O)N1CCC[C@]12CC=CCCCC1(CCCC=CCCCOC(=O)N3CC[C@@](C(=O)N[C@@H](Cc4ccsc4)C(=O)N[C@@H](Cc4csc5ccccc45)C(=O)N[C@@H](CC(N)=O)C(=O)N[C@@H](C)C(=O)N[C@@H](CC(C)C)C(=O)N[C@@H](C)C(=O)N[C@@H](CC(C)C)C(=O)N[C@@H](C)C(N)=O)(C3)NC(=O)[C@H](CC(C)C)NC(=O)[C@H](Cc3ccccc3)NC(=O)[C@H](C)NC(=O)[C@H](C)NC(=O)[C@H](Cc3cccc(C(=O)O)c3)NC(=O)[C@H](CC(=O)O)NC1=O)NC(=O)[C@H](CC(C)(C)C)NC(=O)[C@H](CC(=O)O)NC2=O` (stereo partly drawn) [I-2281, Ac-PL3-Asp-Npg-B5-Asp-3COOHF-Ala-Ala-Phe-Leu-PyrS2-3Thi-BztA-Asn-Ala-Leu-Ala-Leu-Ala-NH2]: the results for the IC50 in test [1] (setting [3]) and in test [2] (setting [4]) were 138 nM and 4300 nM, respectively.
The corresponding values for `CC(=O)N1CCC[C@]12CC=CCCCC1(CCCC=CCCCOC(=O)N3CC[C@@](C(=O)N[C@@H](Cc4ccsc4)C(=O)N[C@@H](Cc4csc5ccccc45)C(=O)N[C@@H](CC(N)=O)C(=O)N[C@@H](C)C(=O)N[C@@H](CC(C)C)C(=O)N[C@@H](C)C(=O)N[C@@H](CC(C)C)C(=O)N[C@@H](C)C(N)=O)(C3)NC(=O)[C@H](CC(C)C)NC(=O)[C@H](Cc3ccccc3)NC(=O)[C@H](C)NC(=O)[C@H](C)NC(=O)[C@H](Cc3cccc(C(=O)O)c3)NC(=O)[C@H](CC(=O)O)NC1=O)NC(=O)[C@H](CC(C)(C)C)NC(=O)[C@H](CC(=O)O)NC2=O` (stereo partly drawn) [I-2282, Ac-PL3-Asp-Npg-B5-Asp-3COOHF-Ala-Ala-Phe-Leu-PyrS2-3Thi-BztA-Asn-Ala-Leu-Ala-Leu-Ala-NH2] are 155 nM and 3700 nM.
As to `CC(=O)N1CCC[C@]12CC=CCCCC1(CCCC=CCCCOC(=O)N3CC[C@@](C(=O)N[C@@H](Cc4ccsc4)C(=O)N[C@@H](Cc4csc5ccccc45)C(=O)N[C@@H](CC(N)=O)C(=O)N[C@@H](C)C(=O)N[C@@H](CC(C)C)C(=O)N[C@@H](C)C(=O)N[C@@H](CC(C)C)C(=O)N[C@@H](C)C(=O)N[C@@H](CC(C)C)C(=O)N[C@@H](C)C(N)=O)(C3)NC(=O)[C@H](CC(C)C)NC(=O)[C@H](Cc3ccccc3)NC(=O)[C@H](C)NC(=O)[C@H](C)NC(=O)[C@H](Cc3cccc(C(=O)O)c3)NC(=O)[C@H](CC(=O)O)NC1=O)NC(=O)[C@H](CC(C)(C)C)NC(=O)[C@H](CC(=O)O)NC2=O` (stereo partly drawn) [I-2283], the figures for the IC50 in test [1] (setting [3]) and in test [2] (setting [4]) were 2860 nM and 4500 nM, respectively.
In the case of `CC(=O)N1CCC[C@]12CC=CCCCC1(CCCC=CCCCOC(=O)N3CC[C@@](C(=O)N[C@@H](Cc4ccsc4)C(=O)N[C@@H](Cc4csc5ccccc45)C(=O)N[C@@H](CC(N)=O)C(=O)N[C@@H](C)C(=O)N[C@@H](CC(C)C)C(=O)N[C@@H](C)C(=O)N[C@@H](CC(C)C)C(=O)N[C@@H](C)C(=O)N[C@@H](CC(C)C)C(=O)N[C@@H](C)C(N)=O)(C3)NC(=O)[C@H](CC(C)C)NC(=O)[C@H](Cc3ccccc3)NC(=O)[C@H](C)NC(=O)[C@H](C)NC(=O)[C@H](Cc3cccc(C(=O)O)c3)NC(=O)[C@H](CC(=O)O)NC1=O)NC(=O)[C@H](CC(C)(C)C)NC(=O)[C@H](CC(=O)O)NC2=O` (stereo partly drawn) [I-2284], the IC50 in test [1] (setting [3]) is 2680 nM; in test [2] (setting [4]), 12900 nM.
